Experimental findings from patent publication US20260272865A1, “HYDROXYPHENYL PROPANOATE COMPOUNDS FOR TUMOUR IMMUNOTHERAPY, COMPOSITIONS AND USES THEREOF” (UTI LIMITED PARTNERSHIP, priority 2023, published 2026) are described below.

“Also recorded” adds a separate entry of the source.

Test [1] concerns GSDMD regulated cytokines. Kind of test: Cytokine level of tumour interstitial fluid of M3-9-M^OVA tumours. The class given is in vivo, mouse. As to the method:
Cells were seeded in a 96-well plate at a density of 0.5-1.0×10^6 cells/well and treated with PRR agonists in combination with or without metabolites. To measure cytokine levels, culture supernatant was collected at specific timepoints. To check cytokine levels of the tumour interstitial fluid, samples were prepared following the protocol, as mentioned by Kim et al (Nat. Commun. 8, (2017)). Cellular IL-1 levels were determined by incubating HEK-Blue™ IL-1β cells ([…]) with the collected culture supernatant and measuring the SEAP levels in the culture medium using QUANTI-Blue™ solution ([…]). Multiplexed quantification of cytokines, chemokines, and growth factors was also conducted by Eve Technologies Corp. (Calgary, Alberta) using the Luminex™ 200 system (Luminex, Austin, TX, USA).

In the next test the test system is NF-κB pathway. Briefly: NF-κB activity reporter assay in THP1-Dual cells. The class given is cell-based, human. As to the method:
NF-κB and IRF induction assays were performed using mouse RAW-Dual™ (InvivoGen) and human THP1-Dua™ (InvivoGen) reporter cell lines. The cells were resuspended in freshly prepared test media at a concentration of 1.0×10^6 cells/mL for RAW-Dual™ and 5.0×10^5 cells/mL for THP1-Dual™. 180 μL of cells were seeded per well in a standard 96-well plate and optimized the concentration of several PRR agonists that trigger NF-κB and IRF. To test the metabolite effect on these pathways, 10 μL of the optimized receptor agonist, 10 μL of the 2 mM metabolite solution or vehicle was added to each well, making a final volume of 200 μL. To neutralize IL-1 receptor signalling, anti-IL-1a (clone 7D4, InvivoGen) and anti-IL-1β (clone 4H5, InvivoGen) antibodies were added and IgG1 isotype (clone T8E5, InvivoGen) was used as a control, as per manufacturer's recommendation. NF-κB activity was determined by measuring secreted embryonic alkaline phosphatase (SEAP) levels using QUANTI-Blue™ solution (InvivoGen). After aliquoting 20 μL of cell culture supernatant into 180 μL of QUANTI-Blue™, the conversion of color to blue was monitored and SEAP levels were determined using a SpectraMax i3 from Molecular Devices at 650 nm. To assess IRF induction, secreted lucia luciferase levels were measured in the culture medium using QUANTI-Luc™ solution (InvivoGen). 20 μL of cell culture supernatant was aliquoted into 50 μL of QUANTI-Luc™ solution and the luminescence reading was immediately recorded using the SpectraMax i3.
(A reporter such as luciferase makes a cellular process visible.)

Another test deals with OVA-specific CD8 T cells. Briefly: Flow cytometry of OVA-specific CD8 T cells within M3-9-M^OVA tumours. The class given is in vivo, mouse. To be noted: male IMDM-CR mice, 18 days after implantation. The procedure: Tumours were isolated from mice and single cell suspensions were made using a mouse tumour dissociation kit following the manufacturer's instructions (Miltenyi Biotec). The isolated tumours were minced into pieces ~2-4 mm in diameter using a sterile scalpel, homogenized the tumour samples in RPMI 1640 media and enzyme mix for 1 minute, and incubated the homogenates for 40 minutes with continuous gentle shaking at 37° C. The homogenates were then filtered through a 70 μm cell strainer followed by centrifuging the single cell suspensions. The red blood cells (RBC) were removed using RBC lysis buffer. A Percoll gradient based leukocyte separation was performed followed by live and dead cell staining using Zombie Aqua dye (BioLegend). Cell surface markers were stained using ant-CD4-FITC (clone RM4-4, BioLegend), anti-CD8-PE.Cy7 (clone 53-6.7, BioLegend), anti-CD3-BV421 (clone 145-2C11, BioLegend), anti-CD45-APC.Cy7 (clone 30-F11, BioLegend), anti-PD-1-FITC (clone 29F.1A12, BioLegend), anti-TIM3-PE (clone RMT3-23, BioLegend) and anti-LAG3-PerCP/Cy5.5 (clone C9B7W, BioLegend) for T lymphocytes. For OVA-specific CD8 T cell detection, H-2K(b) chicken ova 257-264 human B2M SIINFEKL Alexa 647-labeled tetramer was used. The cells were washed after staining with FACS buffer and quantified using the Attune NxT Flow Cytometer (Thermo Fisher Scientific).
On the technique in general: In flow cytometry, cells or beads pass a laser one at a time.

Take `O=C(O)CCc1ccccc1O` [Compound I-1, 3-(2-hydroxyphenyl)propanoic acid]: the IL-1β release entry in test [1] (M3-9-M^OVA tumours) is “notable increase”. The “secretion of GSDMD regulated cytokines / cytokine milieu in TME” value in test [1] (male JAX C57BL/6 mice, 14 days, treatment from day 1, listed as 3,2-HPP) was “impacted the secretion; also recorded: significantly shifts”. For the same compound, in the test on NF-κB pathway (LPS or other NF-κB pathway inducers), the “NF-κB pathway activation combined with PRR agonists” value is “potentiate”. Also, the “NF-κB pathway activation when treated with LPS” value in the test with NF-κB pathway (LPS, 16 hours, vs vehicle) was “potentiates”. Besides, in the test with OVA-specific CD8 T cells, the “expression of exhaustion markers PD1, TIM3, LAG3 on OVA-specific CD8 T cells” value is given as “no significant changes” and the “frequency of OVA-specific CD8 T cells in the tumour” value is recorded as “increase the frequency”.
